Measured values reported in US7112685B2, “Labeled resiniferatoxin derivatives” (Ortho-McNeil Pharmaceutical, Inc., priority 2000, dated 2006).
Like-named read-outs stand apart in the source and are kept apart here.

Target: T1, hVR1 receptors (Homo sapiens, UniProt Q8NER1)
T1 construct: expressed in transfected cells; host or cells: HEK293 cells (membranes)
Assay: [3H] RTX Binding Assay (inhibition of [3H] RTX binding to membranes of HEK293 cells transfected with human VR1)
Description: Iodinated RTX derivatives of the present invention were tested for their ability to inhibit the binding of [^3H] RTX to hVR1 receptors in a [^3H] RTX Binding Assay.
HEK293 cells were transfected with human VRI vanilloid receptors, as described in U.S. patent application Ser. No. 09/292700 to Dubin, A., et. al, filed on Apr. 15, 1999 (herein incorporated by reference), and washed with Hank's Balanced Salt Solution, dissociated with cell dissocation buffer (Sigma), and then centrifuged at 1000 x g for 5 min. Cell pellets were homogenized in cold 20 mM HEPES buffer, pH 7.4, containing 5.8 mM NaCl, 320 mM sucrose, 2 mM MgCl2, […] and 5 mM KCl and centrifuged at 1000 x g for 15 min. The resultant supernate was then centrifuged at 40,000 x g for 15 min. The pelleted membranes were kept in an −80° C. freezer.
The assay procedure was modified from that described in Szallasi, A. and Blumberg, P. M., “[^3H] Resiniferatoxin binding by the vanilloid receptor: specific-related differences, effect of temperature and sulfhydryl reagents” (Naunyn-Schmiedeberg's Arch. Pharmacol., 1993, 347, 84-91). Briefly, about 120 μg protein/ml from membranes were incubated with indicated concentrations of [^3H] RTX in 0.5 ml of the HEPES buffer (pH 7.4) containing 0.25 mg/mL fat acid-free bovine serum albumin at 37° C. for 60 min. The reaction mixture was then cooled to 4° C., added 0.1 mg α1-acid glycoprotein to each sample and incubated at 4° C. for 15 min. The samples were centrifuged at 18500 x g for 15 min. The tip of the microcentrifuge tube containing the pellet was cut off. Bound radioactivity was quantified by scintillation counting. Non-specific binding was tested in the presence of 200 nM unlabeled RTX.
Membrane Incubation with [^3H] RTX and lodinated RTX Derivatives
Membranes were incubated with [^3H] RTX (0.4 nM) and varying concentrations of iodinated RTX derivatives at 37° C. for 60 min. […] RTX binding.

T1 sequence (Q8NER1 whole entry): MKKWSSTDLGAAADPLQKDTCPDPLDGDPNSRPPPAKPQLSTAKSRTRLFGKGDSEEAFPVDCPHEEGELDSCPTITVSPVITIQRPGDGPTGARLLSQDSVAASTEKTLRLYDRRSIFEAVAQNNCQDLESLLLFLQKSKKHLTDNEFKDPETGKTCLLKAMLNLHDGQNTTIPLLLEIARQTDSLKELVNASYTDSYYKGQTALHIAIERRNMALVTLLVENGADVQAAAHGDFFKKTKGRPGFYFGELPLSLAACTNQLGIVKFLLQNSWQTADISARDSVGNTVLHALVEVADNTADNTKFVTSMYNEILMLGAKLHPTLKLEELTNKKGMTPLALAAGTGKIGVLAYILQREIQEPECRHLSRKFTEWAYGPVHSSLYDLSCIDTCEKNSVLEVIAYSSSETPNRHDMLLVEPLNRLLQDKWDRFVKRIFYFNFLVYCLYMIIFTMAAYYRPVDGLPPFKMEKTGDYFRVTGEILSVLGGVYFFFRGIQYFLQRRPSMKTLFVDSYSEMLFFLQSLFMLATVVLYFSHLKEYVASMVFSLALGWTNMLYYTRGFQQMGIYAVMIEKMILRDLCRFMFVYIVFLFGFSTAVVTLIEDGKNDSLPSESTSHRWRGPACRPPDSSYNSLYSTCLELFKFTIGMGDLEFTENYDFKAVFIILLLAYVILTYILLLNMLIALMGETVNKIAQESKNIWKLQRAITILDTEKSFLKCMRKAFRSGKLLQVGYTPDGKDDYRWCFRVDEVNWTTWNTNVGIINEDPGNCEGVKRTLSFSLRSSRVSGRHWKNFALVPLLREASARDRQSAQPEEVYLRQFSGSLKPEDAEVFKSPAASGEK

SMILES	IC50 [nM]	IC50 ([3H] RTX 0.4 nM, 37° C. for 60 min, HEK293 membranes, two experiments, each point in duplicate, read-out: IC50 Value for Binding to a hVR1 Receptor) [nM]
C=C(C)C12CC(C)C34OC(Cc5ccccc5)(OC1C3C=C(COC(=O)Cc1cc(OC)c(OC(C)=O)cc1I)CC1(O)C(=O)C(C)=CC14)O2 (stereo not drawn) [Compound 1, 9,13,14-Orthophenylacetylresiniferonyl-20-(3-acetoxy-4-methoxy-6-Iodophenylacetate)]	0.31 ± 0.06	–
C=C(C)C12CC(C)C34OC(Cc5ccccc5)(OC1C3C=C(COC(=O)Cc1cc(OC)c(O)cc1I)CC1(O)C(=O)C(C)=CC14)O2 (stereo not drawn) [Compound 2, 9,13,14-Orthophenylacetylresiniferonyl-20-(3-hydroxy-4-methoxy-6-iodophenylacetate)]	0.22 ± 0.03	–
C=C(C)[C@]12C[C@@H](C)[C@@]34O[C@](Cc5ccccc5)(O[C@@H]1[C@@H]3C=C(COC(=O)Cc1ccc(O)c(OC)c1)C[C@]1(O)C(=O)C(C)=C[C@@H]41)O2 [RTX, resiniferatoxin]	–	0.09 ± 0.12
